Patent US10130615B2, “Benzomorphan analogs and the use thereof” (priority 2014, dated 2018)

How the values were obtained:
κ-opioid receptor [1] = biological target: T1, κ-opioid receptor (Homo sapiens, UniProt P41145); experiment: κ-opioid receptor GTPγS functional assay, U2OS cells; format: biochemical; parameters: expressed in transfected cells; host or cells: U-2 OS; conditions: U2OS cells; for EC50: read-out: GTPγS κ EC50
Protocol: Plates were incubated for 30 min at a temperature of about 25° C. with shaking.

μ-opioid receptor [2] = biological target: T2, μ-opioid receptor (Homo sapiens, UniProt P35372); experiment: cell-based; parameters: purchased Perkin Elmer, Shelton, Conn; conditions: U2OS cells; for Emax: read-out: β-Arr2 μ Emax; for EC50: read-out: β-Arr2 μ EC50
κ-opioid receptor [3] = biological target: T1, κ-opioid receptor; experiment: κ-opioid receptor β-Arr2 activity response, U2OS cells; format: cell-based; parameters: expressed in transfected cells; host or cells: U-2 OS; conditions: U2OS cells
μ-opioid receptor [4] = biological target: T2, μ-opioid receptor; experiment: μ-opioid receptor GTPγS functional assay, U2OS cells; conditions: for Emax: read-out: GTPγS μ Emax
μ-opioid receptor [5] = biological target: T2, μ-opioid receptor; experiment: biochemical; parameters: purchased Perkin Elmer, Shelton, Conn; host or cells: HEK-293 or CHO; conditions: HEK-293 or CHO cells; for Emax: relative to DAMGO, read-out: GTPγS μ Emax; for EC50: read-out: GTPγS μ EC50

T1 sequence (P41145 whole entry): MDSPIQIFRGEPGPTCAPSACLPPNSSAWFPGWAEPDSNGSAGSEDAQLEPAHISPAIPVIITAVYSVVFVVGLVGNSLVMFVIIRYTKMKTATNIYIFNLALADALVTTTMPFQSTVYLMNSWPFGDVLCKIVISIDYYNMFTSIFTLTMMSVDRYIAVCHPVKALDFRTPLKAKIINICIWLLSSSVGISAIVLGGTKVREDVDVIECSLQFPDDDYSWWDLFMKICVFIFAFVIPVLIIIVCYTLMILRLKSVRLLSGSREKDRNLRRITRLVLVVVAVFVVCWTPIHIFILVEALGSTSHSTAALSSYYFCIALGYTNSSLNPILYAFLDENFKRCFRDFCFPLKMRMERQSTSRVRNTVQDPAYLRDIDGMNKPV
T2 sequence (P35372 whole entry, species assumed): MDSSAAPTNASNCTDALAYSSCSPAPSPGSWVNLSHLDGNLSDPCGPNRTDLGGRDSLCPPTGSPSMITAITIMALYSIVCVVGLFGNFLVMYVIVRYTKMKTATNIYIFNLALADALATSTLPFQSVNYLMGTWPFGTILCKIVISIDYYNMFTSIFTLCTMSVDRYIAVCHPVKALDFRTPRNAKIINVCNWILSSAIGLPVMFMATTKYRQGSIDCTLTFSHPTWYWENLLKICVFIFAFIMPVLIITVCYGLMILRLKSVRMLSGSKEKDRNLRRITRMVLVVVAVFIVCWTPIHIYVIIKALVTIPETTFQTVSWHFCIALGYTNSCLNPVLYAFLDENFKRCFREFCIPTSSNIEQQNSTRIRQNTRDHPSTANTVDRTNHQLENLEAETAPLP

C[C@H]1[C@H]2Cc3ccc(O)cc3[C@]1(CCNS(C)(=O)=O)CCN2CC1CC1 [Compound 3, N-(2-((2R,6S,11R)-3-(cyclopropyl-methyl)-8-hydroxy-11-methyl-2,3,4,5-tetrahydro-2,6-methanobenzo[d]azocin-6(1H)-yl)ethyl)methanesulfonamide]
Emax (κ-opioid receptor [1]): 104 ± 2.52%
EC50 (κ-opioid receptor [1]): 0.32 ± 0.031 nM
Emax (μ-opioid receptor [2]): 0%
Emax (κ-opioid receptor [3]): -0.33 ± 0.67%
EC50 (μ-opioid receptor [4]): 0.85 ± 0.11 nM
Emax (μ-opioid receptor [4]): 16.7 ± 0.33%

C[C@H]1[C@H]2Cc3ccc(O)cc3[C@]1(CCNS(=O)(=O)C1CC1)CCN2CC1CC1 [Compound 6, N-(2-((2R,6S,11R)-3-(cyclopropyl-methyl)-8-hydroxy-11-methyl-2,3,4,5-tetrahydro-2,6-methanobenzo[d]azocin-6(1H)-yl)ethyl)-cyclopropanesulfonamide]
Emax (κ-opioid receptor [1]): 107 ± 2.65%
EC50 (κ-opioid receptor [1]): 0.072 ± 0.013 nM
Emax (μ-opioid receptor [2]): -0.33 ± 0.67%
EC50 (μ-opioid receptor [4]): 0.88 ± 0.095 nM
Emax (μ-opioid receptor [4]): 30.7 ± 0.88%
Emax (μ-opioid receptor [5]): -0.33 ± 0.67%

C[C@H]1[C@H]2Cc3ccc(O)cc3[C@]1(CCN1CCC(N(C3CC3)S(=O)(=O)c3ccccc3)CC1)CCN2C [Compound 7, N-cyclopropyl-N-(1-(2-((2R,6R,11R)-8-hydroxy-3,11-dimethyl-2,3,4,5-tetrahydro-2,6-methanobenzo[d]azocin-6(1H)-yl)ethyl)piperidin-4-yl)benzene-sulfonamide]
EC50 (μ-opioid receptor [2]): 503 ± 116 nM
Emax (μ-opioid receptor [2]): 23.4 ± 1.33%
EC50 (μ-opioid receptor [4]): 83.1 ± 1.96 nM
Emax (μ-opioid receptor [4]): 99 ± 1%
EC50 (μ-opioid receptor [5]): 624 ± 65.9 nM
Emax (μ-opioid receptor [5]): 54.5 ± 4.33%

C[C@H]1[C@H]2Cc3ccc(O)cc3[C@]1(CCN1CCN(C(c3ccc(F)cc3)c3ccc(F)cc3)CC1)CCN2C [Compound 8, (2R,6R,11R)-6-(2-(4-(bis(4-fluoro-phenyl)methyl)piperazin-1-yl)ethyl)-3,11-dimethyl-1,2,3,4,5,6-hexahydro-2,6-methanobenzo[d]azocin-8-ol]
EC50 (μ-opioid receptor [2]): 4710 ± 227 nM
Emax (μ-opioid receptor [2]): 70.7 ± 6.98%
EC50 (μ-opioid receptor [4]): 72.7 ± 4.92 nM
Emax (μ-opioid receptor [4]): 100 ± 3.06%
EC50 (μ-opioid receptor [5]): 796 ± 72.2 nM
Emax (μ-opioid receptor [5]): 47 ± 1.53%

C[C@H]1[C@H]2Cc3ccc(O)cc3[C@]1(CCNC(=O)Nc1ccc(F)cc1)CCN2CC1CC1 [Compound 18, 1-(2-((2R,6R,11R)-3-(cyclopropyl-methyl)-8-hydroxy-11-methyl-2,3,4,5-tetrahydro-2,6-methanobenzo[d]azocin-6(1H)-yl)ethyl)-3-(4-fluorophenyl)urea]
EC50 (μ-opioid receptor [2]): 0.31 ± 0.063 nM
Emax (μ-opioid receptor [2]): 4.38 ± 0.35%
EC50 (μ-opioid receptor [5]): 0.12 nM
Emax (μ-opioid receptor [5]): 22.4 ± 1.04%

C[C@H]1[C@H]2Cc3ccc(O)cc3[C@]1(CCNC(=O)NCc1ccccc1)CCN2CC1CC1 [Compound 21, 1-benzyl-3-(2-((2R,6R,11R)-3-(cyclopropylmethyl)-8-hydroxy-11-methyl-2,3,4,5-tetrahydro-2,6-methanobenzo[d]azocin-6(1H)-yl)ethyl)urea]
EC50 (μ-opioid receptor [2]): 0.38 ± 0.11 nM
Emax (μ-opioid receptor [2]): 30.1 ± 0.81%
EC50 (μ-opioid receptor [5]): 0.28 ± 0.027 nM
Emax (μ-opioid receptor [5]): 54.7 ± 2.63%

COc1ccc2c(c1)[C@]1(CCNCCCn3ccnc3)CCN(C)[C@H](C2)[C@@H]1C [Compound 55, 3-(1H-imidazol-1-yl)-N-(2-((2R,6R,11R)-8-methoxy-3,11-dimethyl-2,3,4,5-tetrahydro-2,6-methanobenzo[d]azocin-6(1H)-yl)ethyl)propan-1-amine]
Emax (κ-opioid receptor [1]): 113 ± 1.45%
EC50 (κ-opioid receptor [1]): 14700 ± 1240 nM
EC50 (μ-opioid receptor [4]): 14500 ± 653 nM
Emax (μ-opioid receptor [4]): 82 ± 2.65%

COC[C@@H]1CCCN1CC[C@]12CCN(C)[C@H](Cc3ccc(OC)cc31)[C@@H]2C [Compound 56, (2R,6S,11R)-8-methoxy-6-(2-((S)-2-(methoxymethyl)pyrrolidin-1-yl)ethyl)-3,11-dimethyl-1,2,3,4,5,6-hexahydro-2,6-methanobenzo[d]azocine]
Emax (κ-opioid receptor [1]): 94.7 ± 4.48%
EC50 (κ-opioid receptor [1]): 5490 ± 434 nM
EC50 (μ-opioid receptor [4]): 5990 ± 1220 nM
Emax (μ-opioid receptor [4]): 72.3 ± 2.85%

COc1ccc2c(c1)[C@]1(CCNCCCN3CCCC3=O)CCN(C)[C@H](C2)[C@@H]1C [Compound 57, 1-(3-((2-((2R,6R,11R)-8-methoxy-3,11-dimethyl-2,3,4,5-tetrahydro-2,6-methanobenzo-[d]azocin-6(1H)-yl)ethyl)amino)propyl)pyrrolidin-2-one]
Emax (κ-opioid receptor [1]): 118 ± 2%
EC50 (κ-opioid receptor [1]): 11400 ± 994 nM
EC50 (μ-opioid receptor [4]): 11300 ± 435 nM
Emax (μ-opioid receptor [4]): 70.7 ± 2.03%

COc1ccc2c(c1)[C@]1(CCN3CCC[C@@H]3C(=O)O)CCN(C)[C@H](C2)[C@@H]1C [Compound 60, (2-((2R,6S,11R)-8-methoxy-3,11-dimethyl-2,3,4,5-tetrahydro-2,6-methanobenzo[d]azocin-6(1H)-yl)ethyl)-D-proline]
Emax (κ-opioid receptor [1]): 97.7 ± 8.09%
EC50 (μ-opioid receptor [4]): 4910 ± 1080 nM
Emax (μ-opioid receptor [4]): 49 ± 3.61%

C[C@H]1[C@H]2Cc3ccc(O)cc3[C@]1(CC(=O)NCCc1ccc(S(N)(=O)=O)cc1)CCN2C [Compound 62, 2-((2R,6S,11R)-8-hydroxy-3,11-dimethyl-2,3,4,5-tetrahydro-2,6-methanobenzo[d]azocin-6(1H)-yl)-N-(4-sulfamoylphenethyl)acetamide]
Emax (κ-opioid receptor [1]): 35.7 ± 1.67%
EC50 (κ-opioid receptor [1]): 1120 ± 53.4 nM
Emax (μ-opioid receptor [2]): -1%
EC50 (μ-opioid receptor [4]): 172 ± 18.7 nM
Emax (μ-opioid receptor [4]): 49.7 ± 0.88%
EC50 (μ-opioid receptor [5]): 538 ± 22.9 nM
Emax (μ-opioid receptor [5]): 17 ± 1.53%

C[C@H]1[C@H]2Cc3ccc(O)cc3[C@]1(CCNC(=O)NS(=O)(=O)c1ccc(F)cc1)CCN2C [Compound 66, 4-fluoro-N-((2-((2R,6R,11R)-8-hydroxy-3,11-dimethyl-2,3,4,5-tetrahydro-2,6-methanobenzo[d]azocin-6(1H)-yl)-ethyl)carbamoyl)benzenesul-fonamide]
EC50 (μ-opioid receptor [2]): 2290 ± 703 nM
Emax (μ-opioid receptor [2]): 15.9 ± 0.72%
EC50 (μ-opioid receptor [5]): 174 ± 13.1 nM
Emax (μ-opioid receptor [5]): 37.3 ± 0.88%

C[C@H]1[C@H]2Cc3ccc(O)cc3[C@]1(CCNC(=O)Nc1ccccc1)CCN2C [Compound 68, 1-(2-((2R,6R,11R)-8-hydroxy-3,11-dimethyl-2,3,4,5-tetrahydro-2,6-methano-benzo[d]azocin-6(1H)-yl)ethyl)-3-phenylurea]
EC50 (μ-opioid receptor [2]): 18.9 ± 1.23 nM
Emax (μ-opioid receptor [2]): 72.3 ± 0.88%
EC50 (μ-opioid receptor [5]): 28.5 ± 2.07 nM
Emax (μ-opioid receptor [5]): 75.8 ± 2.39%

C[C@H]1[C@H]2Cc3ccc(O)cc3[C@]1(CCNS(=O)(=O)c1ccc(F)cc1)CCN2C [Compound 69, 4-fluoro-N-(2-((2R,6S,11R)-8-hydroxy-3,11-dimethyl-2,3,4,5-tetrahydro-2,6-methanobenzo[d]azocin-6(1H)-yl)ethyl)-benzenesulfonamide]
EC50 (μ-opioid receptor [2]): 2.97 ± 0.34 nM
Emax (μ-opioid receptor [2]): 14.7 ± 0.88%
EC50 (μ-opioid receptor [5]): 5.42 ± 1.11 nM
Emax (μ-opioid receptor [5]): 59.3 ± 1.2%

C[C@H]1[C@H]2Cc3ccc(O)cc3[C@]1(CCNC(=O)[C@@H]1CCC(=O)N1)CCN2C [Compound 72, (S)-N-(2-((2R,6R,11R)-8-hydroxy-3,11-dimethyl-2,3,4,5-tetrahydro-2,6-methano-benzo[d]azocin-6(1H)-yl)ethyl)-5-oxopyrrolidine-2-carboxamide]
EC50 (μ-opioid receptor [2]): 267 ± 63.3 nM
Emax (μ-opioid receptor [2]): 5.8 ± 0.42%
EC50 (μ-opioid receptor [5]): 241 ± 56.7 nM
Emax (μ-opioid receptor [5]): 37.2 ± 1.8%

C[C@H]1[C@H]2Cc3ccc(O)cc3[C@]1(CCNC(=O)Nc1ccc(F)cc1)CCN2C [Compound 76, 1-(4-fluorophenyl)-3-(2-((2R,6R,11R)-8-hydroxy-3,11-dimethyl-2,3,4,5-tetrahydro-2,6-methanobenzo[d]azocin-6(1H)-yl)ethyl)urea]
EC50 (μ-opioid receptor [2]): 28.4 ± 3.98 nM
Emax (μ-opioid receptor [2]): 28.9 ± 1.69%
EC50 (μ-opioid receptor [5]): 28.8 ± 10.5 nM
Emax (μ-opioid receptor [5]): 58.5 ± 2.78%

C[C@H]1[C@H]2Cc3ccc(O)cc3[C@]1(CCNC(=O)Nc1ccccc1F)CCN2C [Compound 78, 1-(2-fluorophenyl)-3-(2-((2R,6R,11R)-8-hydroxy-3,11-dimethyl-2,3,4,5-tetrahydro-2,6-methanobenzo[d]azocin-6(1H)-yl)ethyl)urea]
EC50 (μ-opioid receptor [2]): 90.5 ± 15.4 nM
Emax (μ-opioid receptor [2]): 67 ± 3.71%
EC50 (μ-opioid receptor [5]): 33.5 ± 4.9 nM
Emax (μ-opioid receptor [5]): 71 ± 3.61%

C[C@H]1[C@H]2Cc3ccc(O)cc3[C@]1(CCNC(=O)Nc1cccc(F)c1)CCN2C [Compound 79, 1-(3-fluorophenyl)-3-(2-((2R,6R,11R)-8-hydroxy-3,11-dimethyl-2,3,4,5-tetrahydro-2,6-methanobenzo[d]azocin-6(1H)-yl)ethyl)urea]
EC50 (μ-opioid receptor [2]): 39.1 ± 7.13 nM
Emax (μ-opioid receptor [2]): 58.9 ± 7.55%
EC50 (μ-opioid receptor [5]): 19.7 ± 1.11 nM
Emax (μ-opioid receptor [5]): 71.6 ± 5.96%

C[C@H]1[C@H]2Cc3ccc(O)cc3C1(CCNS(=O)(=O)N(C)C)CCN2C [Compound 80]
EC50 (μ-opioid receptor [2]): 1180 ± 822 nM
Emax (μ-opioid receptor [2]): 2.62 ± 0.36%
EC50 (μ-opioid receptor [5]): 134 ± 3.21 nM
Emax (μ-opioid receptor [5]): 27.9 ± 0.47%

C[C@H]1[C@H]2Cc3ccc(O)cc3[C@]1(CCNC(=O)c1ccc(F)cc1)CCN2C [Compound 83, 4-Fluoro-N-(2-((2R,6R,11R)-8-hydroxy-3,11-dimethyl-2,3,4,5-tetrahydro-2,6-methanobenzo[d]azocin-6(1H)-yl)ethyl)benzamide]
EC50 (μ-opioid receptor [2]): 13.8 ± 3.03 nM
Emax (μ-opioid receptor [2]): 46.5 ± 1.93%
EC50 (μ-opioid receptor [5]): 13.6 ± 3.38 nM
Emax (μ-opioid receptor [5]): 77.2 ± 3.52%

C[C@H]1[C@H]2Cc3ccc(O)cc3[C@]1(CCNC(=O)CCc1ccccc1)CCN2C [Compound 85, N-(2-((2R,6R,11R)-8-hydroxy-3,11-dimethyl-2,3,4,5-tetrahydro-2,6-methanobenzo[d]azocin-6(1H)-yl)ethyl)-3-phenylpropanamide]
EC50 (μ-opioid receptor [2]): 6.55 ± 2.88 nM
Emax (μ-opioid receptor [2]): 39.8 ± 0.77%
EC50 (μ-opioid receptor [5]): 6.51 ± 0.17 nM
Emax (μ-opioid receptor [5]): 69.5 ± 2.23%

C[C@H]1[C@H]2Cc3ccc(O)cc3[C@]1(CCNC(=O)c1ccc(C(N)=O)cc1)CCN2C [Compound 86, N-(2-((2R,6R,11R)-8-hydroxy-3,11-dimethyl-2,3,4,5-tetrahydro-2,6-methanobenzo[d]azocin-6(1H)-yl)ethyl)terephthalamide]
EC50 (μ-opioid receptor [2]): 289 ± 91.8 nM
Emax (μ-opioid receptor [2]): 11.2 ± 0.69%
EC50 (μ-opioid receptor [5]): 252 ± 23.5 nM
Emax (μ-opioid receptor [5]): 48.2 ± 1.26%
